Values of other authors in patent US6803057B2, “Hydrogen peroxide disinfectant with increased activity” (Virox Technologies Inc., priority 1998, dated 2004).
Where two headings read alike, the source gives them in different places.

How the values were obtained:
[1] = tested on: Salmonella typhimurium and Listeria monocytogenes
[2] = tested on: staphylococcus aureus

Structure (SMILES)	concentration effective in sanitizing [1] [ppm]	time required to disinfect surfaces contaminated with staphylococcus aureus ([2]; 0.1 wt./wt. % aqueous solution) [min]	time required to disinfect surfaces contaminated with staphylococcus aureus ([2]; 25.8 wt./wt. % aqueous solution) [min]	corrosivity / irritancy (1-3 wt./wt. % aqueous solution)	corrosivity / irritancy (3-7 wt./wt. % aqueous solution)	corrosivity / irritancy (above about 8 wt./wt. % aqueous solution)
CCCCCCCCCCCCc1ccc(S(=O)(=O)O)cc1 [DDBSA, dodecyl benzene sulfonic acid]	≥ 200	–	–	–	–	–
OO [hydrogen peroxide]	–	60	0.333	non-corrosive and non-irritating	non-corrosive but an eye irritant	corrosive
